Laboratory results taken from US20210060484A1, “PROTON COUPLED ELECTROCHEMICAL CO2 CAPTURE SYSTEM” (President and Fellows of Harvard College, priority 2018, published 2021).

Legend:
[1] = cited from earlier work
[2] = cited from earlier work; remark: listed apart in the source
[3] = solution of zero salinity; cited from earlier work
[4] = solution of zero salinity

## O=C1C=C(S(=O)(=O)O)C=C(S(=O)(=O)O)C1=O [1,2-benzoquinone-3,5-disulfonic acid]
[1]; organic PCET molecules from the redox-flow battery literature
  reported solubility: 3000 mM
[2]
  chemical stability in water: chemical instability in water

## O=C(O)O [carbonic acid]
[3]
  K1, first dissociation constant: 1.1 µM
  K2, second dissociation constant: 410 pM
[4]
  first pKa: 6.0
  second pKa: 9.4

## c1ccc2nccnc2c1 [quinoxaline]
[1]; in water and in weakly alkaline aqueous solution
  solubility: above 4.0 M
